Results: PMC3392440 (2012)

Tests used:
[1] = molecular target: TlpB periplasmic domain, residues 33-211 (TlpBpp), H. pylori strain SS1 (Helicobacter pylori strain SS1); assay: crystal structure
[2] = molecular target: TlpB (Helicobacter pylori, UniProt B6JPK4, Y137F); assay: colorimetric assay of co-purified urea; format: binding
[3] = molecular target: TlpB (Helicobacter pylori, UniProt B6JPK4); assay: crystal structure; format: binding

Q: How did the stoichiometry N [1] turn out when “TlpB periplasmic domain, residues 33-211 (TlpBpp), H. pylori strain SS1 (domain or fragment)” was run?
A: 2

Q: For NC(N)=O [urea], which “% bound urea” value [2] is on record?
A: 11 % bound urea

Q: With CC(N)=O [acetamide] as the compound, how does the “crystal structure (1.40 Å); CD thermal melt” value [3] read?
A: TlpBpp with acetamide bound is 3UB7
